In general, IC50 refers to the midpoint of a concentration-inhibition curve. Read a high IC50 as lower potency.

This note sets out measurements from ChEMBL document CHEMBL1142962, “Antiproliferative prenylated stilbenes and flavonoids from Macaranga alnifolia from the Madagascar rainforest” (J Nat Prod, 2007).

The experiment has as its system A2780 (human ovarian cancer). The experiment can be described thus: Antiproliferative activity against drug-sensitive human A2780 cells.

Take `COc1cc(/C=C/c2cc(O)c(CC=C(C)C)c(O)c2)cc2c1O[C@]1(C)CC[C@@H](O)C(C)(C)[C@H]1C2` [SCHWEINFURTHIN F]: the IC50 came out at 5 µM.

As to `COc1cc(/C=C/c2cc(O)c3c(c2)OC(C)(C)C(O)C3)cc2c1O[C@]1(C)C[C@@H](O)[C@@H](O)C(C)(C)[C@H]1C2` (some centres undefined) [SCHWEINFURTHIN H], the IC50 came to 4.5 µM.

Compound `CC(C)=CCC/C(C)=C/Cc1c(O)cc2c(c1O)C(=O)[C@H](O)[C@@H](c1ccc(O)cc1)O2` [BONANNIOL A] showed an IC50 of 23.5 µM.

The compound `CC(C)=CCC/C(C)=C/Cc1c(O)cc2c(c1O)C(=O)C[C@@H](c1ccc(O)c(O)c1)O2` [NYMPHAEOL A] came in with a 50% inhibitory concentration (IC50) of 10.5 µM.
